Reference: patent US7585839B2, “Medical uses of intercellular communication facilitating compounds” (Zealand Pharma A/S, priority 2001, dated 2009)
Where a SMILES comes first, the peptide text is derived from it. [ ]: non-standard residue; d: D form. The star is where a group is joined. Dnp = O=[N+]([O-])c1ccc(*)c([N+](=O)[O-])c1; X1 = [N-]=[N+]=Nc1cc(O)c(C(=O)*)cc1I; Hyp = O=C(O)[C@@H]1C[C@@H](O)CN1; dHyp = O=C(O)[C@H]1C[C@H](O)CN1; Pip = O=C(O)[C@@H]1CCCCN1; Thz = O=C(O)[C@@H]1CSCN1; Acm = CC(=O)NC*; Sar = CNCC(=O)O

Test system: calcium-induced arrythmias
Assay: Calcium-induced arrhythmia model in mice (CaCl2-induced 2nd degree AV-block)
Type: in vivo
Set-up: CaCl2 mice Score: scale not given here
Details: for CaCl2 mice In vivo, % / CaCl2 mice Score: calcium chloride induced arrythmia model; for In vivo activity: maximal effect, increase in time until 2nd degree AV-block relative to vehicle treated mice, i.v.
Description: The antiarrhythmic effects of compounds of this invention were tested in an in vivo model of calcium-induced arrythmias according to the model of Lynch et al.^[37]. […]. Commercial solutions of hypnorm and midazolam were diluted 1:1 in distilled water and one part diluted Hypnorm® is mixed with one part diluted midazolam.
The anaesthesia was induced by s.c. administration in a dose of 0.05-0.075 μl/10 gram mouse. An i.v. cannula was inserted into the tail vein. The lead II ECG signal was recorded continuously by positioning of a stainless steel ECG electrodes on the right forelimb and on the left hind limb. The ground electrode was placed on the right hind limb. The signal was amplified (×5.000-10.000) and filtered (0.1-150 Hz) via a Hugo Sachs Electronic model 689 ECG module. The analogue signal was digitised via a 12 bit data acquisition board (Data Translation model DT321) and sampled at 1000 Hz using the Notocord HEM 3.1 software for Windows NT. After a 10-min equilibration period, the test sample of drug was injected into the tail vein. Mice pre-treated with vehicle were tested as a measure of the control level in untreated animals. The injection volume was 100 μl in all experiments. Infusion of CaCl2 (30 mg/ml, 0.1 ml/min≈100 mg/kg/min (calciumchlorid-2-hydrat, Riedel-de Haën, Germany)) was started 3 min after i.v. administration of drug or vehicle.
The time lag to onset of 2nd degree AV-block was determined as the time from the start of CaCl2 infusion until the first arrhythmic event occured. An event of 2nd degree AV-block was defined as intermittent failure of the AV conduction characterised by a P-wave without the concomitant QRS complex.
Responses were expressed relative to the time until 2nd degree AV-block occurred in vehicle treated mice.

| Compound | CaCl2 mice In vivo, % | CaCl2 mice Score | In vivo activity |
| --- | --- | --- | --- |
| NCC(=O)N[C@@H](CCCCNc1ccc([N+](=O)[O-])cc1[N+](=O)[O-])C(=O)N[C@@H](Cc1ccc(O)cc1)C(N)=O [H-GK(DNP)Y-NH2] (H-Gly-Lys(Dnp)-Tyr-NH2) | 25 +/− 7% | – | – |
| CC(=O)NCSC[C@H](NC(=O)[C@H](Cc1ccc(O)cc1)NC(=O)[C@@H]1CCCN1C(=O)[C@@H]1C[C@@H](O)CN1C(=O)CNC(=O)[C@H](C)NC(=O)CNC(=O)[C@@H](N)CSCNC(C)=O)C(N)=O [Compound 16, H-Cys(Acm)-Gly-Ala-Gly-Hyp-Pro-Tyr-Cys(Acm)-NH2] (H-C(Acm)GAG[Hyp]PYC(Acm)-NH2) | 23 +/− 10% | 1 | + (+ refers to 15-29% increase in time until arrhythmia) |
| NCC(=O)N[C@H](CC(N)=O)C(=O)N[C@@H](Cc1ccc(O)cc1)C(N)=O [H-G-DN-Y-NH2] (H-Gly-[dN]-Tyr-NH2) | 37 +/− 10% | – | – |
| 3(4-hydroxyphenyl)propionyl-Pro-Hyp-Gly-Ala-Gly-Lys-Lys-Lys-Lys-Lys-Lys-OH [Compound 49] | 80 +/− 17% | 3 | – |
| C[C@H](NC(=O)CN)C(=O)NCC(=O)N1C[C@@H](O)C[C@@H]1C(=O)N1CCC[C@H]1C(=O)N[C@@H](Cc1ccc(O)cc1)C(N)=O [Compound 5, H-Gly-Ala-Gly-D-Hyp-Pro-Tyr-NH2] (H-GAG[dHyp]PY-NH2) | – | 1 | ++ (++ refers to 30-50% increase in time until arrhythmia) |
| NC(=O)C[C@@H](NC(=O)[C@@H](N)Cc1ccc(O)cc1)C(=O)NCC(=O)O [H-Y-DN-G-OH] (H-Tyr-[dN]-Gly-OH) | 39 +/− 9% | – | – |
| Cyclo(Tyr-Pro-4Hyp-Gly-Ala-Gly-Asn) [Compound 3] | 59 +/− 9% | 2 | +++ (+++ refers to >60% increase in time until arrhythmia) |
| C[C@H](NC(=O)CN)C(=O)NCC(=O)N1CCC[C@@H]1C(=O)N[C@@H](C)C(=O)N[C@@H](Cc1ccc(O)cc1)C(N)=O [Compound 7, H-Gly-Ala-Gly-D-Pro-Ala-Tyr-NH2] (H-GAG[dP]AY-NH2) | – | 1 | – |
| NCC(=O)NCC(=O)N[C@@H](Cc1ccc(O)cc1)C(N)=O [H-GGY-NH2] (H-Gly-Gly-Tyr-NH2) | 39 +/− 9% | – | – |
| C[C@H](NC(=O)CN)C(=O)NCC(=O)N1C[C@H](O)C[C@H]1C(=O)N1CCC[C@H]1C(=O)N[C@@H](Cc1ccc(O)cc1)C(=O)N[C@@H](CCCCN)C(=O)N[C@@H](CCCCN)C(=O)N[C@@H](CCCCN)C(=O)N[C@@H](CCCCN)C(=O)N[C@@H](CCCCN)C(=O)N[C@@H](CCCCN)C(N)=O [Compound 50] (H-GAG[Hyp]PYKKKKKK-NH2) | 33 +/− 17% | 2 | – |
| C[C@H](NC(=O)CNC(=O)[C@@H]1C[C@@H](O)CN1C(=O)[C@@H]1CCCN1C(=O)c1cc(I)c(N=[N+]=[N-])cc1O)C(=O)NCC(N)=O [Compound 32, ASAL(mono-iodo)-Pro-Hyp-Gly-Ala-Gly-NH2] (X1-P[Hyp]GAG-NH2) | – | – | +++ (+++ refers to >60% increase in time until arrhythmia) |
| CF3C(O)-AAP10-NH2 | 48 +/− 13% | 3 | – |
| C[C@H](NC(=O)CN)C(=O)NCC(=O)N1C[C@@H](O)C[C@@H]1C(=O)N[C@@H](C)C(=O)N[C@@H](Cc1ccc(O)cc1)C(N)=O [Compound 9, H-Gly-Ala-Gly-D-Hyp-Ala-Tyr-NH2] (H-GAG[dHyp]AY-NH2) | – | 1 | + (+ refers to 15-29% increase in time until arrhythmia) |
| CNCC(=O)N[C@@H](C)C(=O)N(C)CC(=O)N1C[C@H](O)C[C@H]1C(=O)N1CCC[C@H]1C(=O)N[C@@H](Cc1ccc(O)cc1)C(N)=O [Compound 29, H-Sar-Ala-Sar-Hyp-Pro-Tyr-NH2] (H-[Sar]A[Sar][Hyp]PY-NH2) | – | 1 | + (+ refers to 15-29% increase in time until arrhythmia) |
| CC(=O)NCC(=O)N[C@@H](CC(=O)O)C(=O)N[C@@H](CC(N)=O)C(=O)N[C@@H](Cc1ccc(O)cc1)C(N)=O [Ac-G-D-N-Y-NH2] (Ac-GDNY-NH2) | 19 +/− 8% | – | – |
| Ac-Gly-Asn-Tyr-NH2 [Compound 40] | 46 +/− 9% | 2 | ++ (++ refers to 30-50% increase in time until arrhythmia) |

| Compound | CaCl2 mice In vivo, % | CaCl2 mice Score | In vivo activity |
| --- | --- | --- | --- |
| 3(4-hydroxyphenyl)propionyl-Pro-Hyp-Gly-Ala-Gly-Lys-Lys-Lys-Lys-Lys-Lys-NH2 [Compound 51] | 21 +/− 17% | 1 | – |
| NC(=O)CNC(=O)[C@H](CC(N)=O)NC(=O)[C@@H](N)Cc1ccc(O)cc1 [H-YNG-NH2] (H-Tyr-Asn-Gly-NH2) | 34 +/− 9% | – | – |
| H-GAG[Hyp]PYKKKKKK-OH [Compound 48] | 64 +/− 10% | 3 | – |
| [Pro^4]AAP10-NH2 [reference compound] | 62 +/− 9% | 3 | – |
| C[C@H](NC(=O)CN)C(=O)NCC(=O)N1C[C@@H](O)C[C@@H]1C(=O)N1CCC[C@@H]1C(=O)N[C@@H](Cc1ccc(O)cc1)C(N)=O [Compound 10, H-Gly-Ala-Gly-D-Hyp-D-Pro-Tyr-NH2] (H-GAG[dHyp][dP]Y-NH2) | – | 2 | +++ (+++ refers to >60% increase in time until arrhythmia) |
| CC(=O)N[C@@H](Cc1ccc(O)cc1)C(=O)N[C@H](CC(N)=O)C(=O)NCC(=O)O [Ac-Y-DN-G-OH] (Ac-Tyr-[dN]-Gly-OH) | 44 +/− 10% | – | – |
| C[C@H](NC(=O)CN)C(=O)NCC(=O)N1CCCC[C@H]1C(=O)N1CCC[C@H]1C(=O)N[C@@H](Cc1ccc(O)cc1)C(N)=O [Compound 14, H-Gly-Ala-Gly-PC-Pro-Tyr-NH2] (H-GAG[Pip]PY-NH2) | 21 +/− 11% | 1 | + (+ refers to 15-29% increase in time until arrhythmia) |
| C[C@H](NC(=O)CN)C(=O)NCC(=O)N1CSC[C@H]1C(=O)N1CCC[C@H]1C(=O)N[C@@H](Cc1ccc(O)cc1)C(N)=O [Compound 12, H-Gly-Ala-Gly-T4C-Pro-Tyr-NH2] (H-GAG[Thz]PY-NH2) | 32 +/− 6% | 2 | ++ (++ refers to 30-50% increase in time until arrhythmia) |
| H-DY-DN-G-NH2 | 25 +/− 9% | 1 | – |
| H-Gly-Asn-Tyr-NH2 [Compound 41] | 58 +/− 10% | 2 | ++ (++ refers to 30-50% increase in time until arrhythmia) |
| C[C@H](NC(=O)CN)C(=O)NCC(=O)N1C[C@H](O)C[C@H]1C(=O)N1CCC[C@H]1C(=O)N[C@@H](Cc1ccc(O)cc1)C(=O)N[C@@H](CC(N)=O)C(N)=O [H-AAP-10-Asn-NH2] (H-GAG[Hyp]PYN-NH2) | 31 +/− 6% | – | – |
| H-GP[Hyp]GAG-OH [AAP, reference compound] | 35 +/− 7% | 2 | – |
| CC(=O)N[C@@H](Cc1ccc(O)cc1)C(=O)N1CCC[C@H]1C(=O)N1C[C@H](O)C[C@H]1C(=O)NCC(=O)N[C@@H](C)C(=O)NCC(=O)O [Compound 1, Ac-Tyr-Pro-4Hyp-Gly-Ala-Gly-OH] (Ac-YP[Hyp]GAG-OH) | 50 +/− 20% | – | + (+ refers to 15-29% increase in time until arrhythmia) |
| C[C@H](NC(=O)CNC(=O)[C@H](CC(N)=O)NC(=O)[C@H](Cc1ccc(O)cc1)NC(=O)[C@@H]1CCCN1C(=O)[C@@H]1C[C@@H](O)CN1)C(=O)NCC(N)=O [Compound 28, H-Hyp-Pro-Tyr-Asn-Gly-Ala-Gly-NH2] (H-[Hyp]PYNGAG-NH2) | – | 2 | (+) ((+) refers to <15% in time until arrhythmia) |
| C[C@H](NC(=O)CN)C(=O)N(C)CC(=O)N1C[C@H](O)C[C@H]1C(=O)N1CCC[C@H]1C(=O)N[C@@H](Cc1ccc(O)cc1)C(N)=O [Compound 30, H-Gly-Ala-Sar-Hyp-Pro-Tyr-NH2] (H-GA[Sar][Hyp]PY-NH2) | – | 2 | ++ (++ refers to 30-50% increase in time until arrhythmia) |
| H-Gly-Ala-Gly-Asn-Tyr-NH2 [Compound 39] | 53 +/− 15% | 2 | +++ (+++ refers to >60% increase in time until arrhythmia) |
